B1: IL-2: murine rIL-2 (Genzyme), 5 Units/ml during restimulation (protein, UniProt P04351 21-169, looked up)
Interleukin-2: APTSSSTSSSTAEAQQQQQQQQQQQQHLEQLLMDLQELLSRMENYRNLKLPRMLTFKFYLPKQATELKDLQCLEDELGPLRHVLDLTQSKSFQLEDAENFISNIRVTVVKLKGSDNTFECQFDDESATVVDFLRRWIAFCQSIISTSPQ

Experiments:
Format in all cases: cell-based, murine
[1] = system: A9.5.7-4 (cbl-b) mRNA in 11.3.7 T cells; assay: Real-time quantitative PCR of ddPCR clone A9.5.7-4
Description: (§1) “Real-time” Quantitative PCR. Total RNA was isolated as described above and 0.5 μg was reversed transcribed using the TaqMan reverse transcription reagent kit (PE Applied Biosystems) according to recommended protocols. Subsequently, 1 μl aliquots of cDNA (equivalent to 5 ng of input RNA) were amplified in separate reactions with primer pairs and fluorescent probe sets specific for GAPDH (to generate a standard curve to control for input cDNA amounts) and for target mRNAs identified in the differential display screen. Resting, activated and anergic RNA samples were also amplified using specific primers and a probe for IL-2. Standard cycling conditions and PCR protocols were used for the ABI PRISM 7700 Sequence Detection System (PE Applied Biosystems). […]
(§2) Using the relative standard curve method described in protocols provided by ABI, changes in target RNA expression for the different ddPCR cDNA clones and IL-2 were calculated as fold increases over resting cells. To control for input RNA amounts, the relative amount of GAPDH RNA was determined for each sample (resting, anergic, and activated) from a standard curve generated for GAPDH. […] Standard curves for both target genes and GAPDH were determined by quantitative PCR reactions using serial dilutions of known amounts of cDNA or plasmids containing relevant inserts.

[2] = system: 6.5.2-4 (lymphotactin) mRNA in 11.3.7 T cells; assay: Real-time quantitative PCR of ddPCR clone 6.5.2-4
Description: as §1, §2

[3] = system: 19.9.6-3 (Nurr2) mRNA in 11.3.7 T cells; assay: Real-time quantitative PCR of ddPCR clone 19.9.6-3
Description: as §1, §2

[4] = system: IL-2 mRNA in 11.3.7 T cells; assay: Real-time quantitative PCR of IL-2 message; settings: 4 hours ionomycin vs PMA and ionomycin (100%)
Description: as §1, §2

11.3.7 T cells = assay: Anergy assay: proliferation on restimulation (3H-Thymidine)
Description: Anergy Assays. Resting 11.3.7 T cells were purified on a Lympholyte M (Cedarlane Labs) gradient and washed three times with 1×PBS. Costimulatory incompetent APCs, (B7 negative RT 7.7 fibroblasts), were irradiated at 3000 rads prior to use in antigen-induced anergy cultures. 6×10^6 T cells were mixed with 6×10^6 B7 negative RT7.7 APCs in 20 mls of culture media. […] For ionomycin-induced anergy, 2×10^6 11.3.7 T cells were incubated with 1.5 μM ionomycin (Calbiochem). For full activation, 1 μg/ml PMA was added to the cultures.
At selected time intervals, aliquots of both cultures were harvested, pelleted, and washed twice before adding 10 μl of anti-CD4 microbeads (Millenyl Biotech) to separate CD4+ T cells from the RT 7.7 fibroblast APCs, according to the manufacturer's protocol. As determined by flow cytometry, greater than 95% purity was routinely achieved. To test for the anergic phenotype, 50×10^4 T cells/well were then cultured with irradiated DBA/2 splenocytes and various concentrations of peptide in a 96 well plate. In selected cultures, murine rIL-2 (Genzyme) was added at 5 Units/ml during the restimulation period, to test the viability of the anergized T cells. After 48 hours of culture, the cells were pulsed for 18 hours with 3H-Thymidine, then harvested and counted.

[5] = system: 1-4 (GRAIL) mRNA in 11.3.7 T cells; assay: Real-time quantitative PCR of ddPCR clone 1-4
Description: as §1, §2

[6] = system: 9.3.1-2 (MRC-OX44) mRNA in 11.3.7 T cells; assay: Real-time quantitative PCR of ddPCR clone 9.3.1-2
Description: as §1, §2

[7] = fold over resting T cells (1.0), GAPDH normalized
[8] = ionomycin-induced anergy (ion vs PMA/ion)

Row | Molecule | A9.5.7-4 mRNA expression, Anergic + ion [1, 7] [fold] | A9.5.7-4 anergic:activated ratio [1, 8] [fold] | 6.5.2-4 mRNA expression, Anergic + ion [2, 7] [fold] | 6.5.2-4 anergic:activated ratio [2, 8] [fold] | 19.9.6-3 mRNA expression, Anergic + ion [3, 7] [fold] | 19.9.6-3 anergic:activated ratio [3, 8] [fold] | IL-2 mRNA level relative to activated cells [4] [%] | ionomycin-induced anergy (11.3.7 T cells; 1.5 μM ionomycin, 6 hours incubation) | induction of functional unresponsiveness (11.3.7 T cells; 1.5 μM ionomycin, one hour incubation) | 1-4 mRNA expression, Anergic + ion [5, 7] [fold] | 1-4 anergic:activated ratio [5, 8] [fold] | 9.3.1-2 mRNA expression, Anergic + ion [6, 7] [fold] | 9.3.1-2 anergic:activated ratio [6, 8] [fold] | proliferative response of anergized T cells with IL-2 added (11.3.7 T cells; antigen-induced anergy, rIL-2 5 Units/ml during restimulation) | unresponsiveness with IL-2 added to restimulation cultures (11.3.7 T cells; ionomycin-induced anergy, rIL-2 5 Units/ml during restimulation)
1 | C[C@H](CCC(=O)O)C[C@H](C)C[C@H](C)C(=O)/C=C(\O)[C@H](C)C[C@H](C)C/C=C/[C@@H](C)[C@@H](O)[C@@H](C)[C@@H](O)C[C@@H]1CC[C@@](C)([C@H]2CC[C@@](C)([C@@H](C)O)O2)O1 [Ionomycin, ionomycin] | 11.0 | 1.4 | 153 | 0.84 | 21.7 | 1.1 | ≤ 0.5 | complete | did not induce a state of functional unresponsiveness | 4.0 | 3.3 | 10.2 | 0.71 |  | 
2 | B1 |  |  |  |  |  |  |  |  |  |  |  |  |  | induced as strong a proliferative response in the anergized T cells as it did in the resting, control T cells | overcome
